# Experimental data taken from ChEMBL document CHEMBL1201862, “PubChem BioAssay data set” (2004).
#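 Where inhibition never reached the appropriate level, the endpoint shown equals the highest concentration tested. Otherwise, values were interpolated linearly from a five-concentration, 48-hour dose response in 96-well plates. Here, GI50 denotes the concentration required for 50% inhibition of growth.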 Calls of active or inactive are those of the source. Cut-off read from the data, not from the text of the source: active = GI50 up to about 1.1 µM and inactive = higher.
# Assays:
# Experiment in all cases: DTP human tumour cell line panel, 48 h
# [1] = system: NCI-H23
# [2] = system: BT-549
# [3] = system: OVCAR-5
# [4] = system: COLO 205
# [5] = system: NCI/ADR-RES
# [6] = system: ACHN
# [7] = system: 786-0
# [8] = system: CAKI-1
# [9] = system: NCI-H226
# [10] = system: UACC-62
# [11] = system: SK-MEL-28
# [12] = system: TK-10
# [13] = system: HOP-92
# [14] = system: SK-MEL-5
# [15] = system: OVCAR-4
# [16] = system: T47D
# [17] = system: OVCAR-8
# [18] = system: Hs-578T
# [19] = system: EKVX
# [20] = system: SF-539
Structure (SMILES),GI50 [1],GI50 [2],GI50 [3],GI50 [4],GI50 [5],GI50 [6],GI50 [7],GI50 [8],GI50 [9],GI50 [10],GI50 [11],GI50 [12],GI50 [13],GI50 [14],GI50 [15],GI50 [16],GI50 [17],GI50 [18],GI50 [19],GI50 [20]
CCOC(=O)/C(=C\c1ccccc1)C(=O)CCN1CCOCC1,8.85 µM (inactive),16.7 µM (inactive),17.4 µM (inactive),3.66 µM (inactive),3.06 µM (inactive),5.38 µM (inactive),7.78 µM (inactive),4.49 µM (inactive),20.7 µM (inactive),4.24 µM (inactive),3.54 µM (inactive),6.5 µM (inactive),5.86 µM (inactive),12.6 µM (inactive),12.4 µM (inactive),16.3 µM (inactive),4.06 µM (inactive),47.1 µM (inactive),15.6 µM (inactive),7.26 µM (inactive)
COC(=O)C(CCSC)NC(=O)CSc1nnc(COc2ccc(Cl)cc2)n1-c1ccccc1 (stereo not given),17.8 µM (inactive),19.6 µM (inactive),19.5 µM (inactive),18.3 µM (inactive),17.6 µM (inactive),18.1 µM (inactive),16.3 µM (inactive),16.7 µM (inactive),21.4 µM (inactive),18.2 µM (inactive),17.4 µM (inactive),19.1 µM (inactive),18.2 µM (inactive),18.5 µM (inactive),16.1 µM (inactive),27.5 µM (inactive),18.6 µM (inactive),21.4 µM (inactive),27.6 µM (inactive),18.4 µM (inactive)
CCOP(=O)(OCC)c1c(C(=O)OC)cc(=O)[nH]c1-c1ccc(C)cc1,16.9 µM (inactive),7.71 µM (inactive),5.64 µM (inactive),6.5 µM (inactive),19.5 µM (inactive),3.17 µM (inactive),20.6 µM (inactive),5.46 µM (inactive),9.31 µM (inactive),7.01 µM (inactive),18.5 µM (inactive),14.4 µM (inactive),2.75 µM (inactive),13.3 µM (inactive),8.2 µM (inactive),2.58 µM (inactive),17.7 µM (inactive),17.9 µM (inactive),3.73 µM (inactive),7.87 µM (inactive)
CCCC(=O)NC(Nc1ccc(S(=O)(=O)Nc2ccc(OC)nn2)cc1)(C(F)(F)F)C(F)(F)F,> 100 µM (inactive),> 100 µM (inactive),> 100 µM (inactive),> 100 µM (inactive),> 100 µM (inactive),> 100 µM (inactive),> 100 µM (inactive),> 100 µM (inactive),> 100 µM (inactive),> 100 µM (inactive),> 100 µM (inactive),> 100 µM (inactive),> 100 µM (inactive),> 100 µM (inactive),> 100 µM (inactive),> 100 µM (inactive),> 100 µM (inactive),> 100 µM (inactive),> 100 µM (inactive),> 100 µM (inactive)
COC(=O)Cc1ccc2c(c1)Sc1ccc(CC(=O)OC)cc1N2C,28.6 µM (inactive),16.1 µM (inactive),> 65.5 µM (inactive),18.2 µM (inactive),16.3 µM (inactive),38 µM (inactive),25.5 µM (inactive),11.6 µM (inactive),49.5 µM (inactive),23.9 µM (inactive),38.3 µM (inactive),58.3 µM (inactive),24.6 µM (inactive),12.3 µM (inactive),28.3 µM (inactive),32.2 µM (inactive),34.3 µM (inactive),39.3 µM (inactive),42 µM (inactive),36.3 µM (inactive)
COc1cc(C2c3cc4c(cc3OC(NNc3ccccc3)C2C)OCO4)cc(OC)c1OC (stereo not given),2.83 µM (inactive),1.01 µM (active),1.69 µM (inactive),1.46 µM (inactive),0.597 µM (active),0.631 µM (active),1.1 µM (active),0.982 µM (active),1.92 µM (inactive),0.544 µM (active),1.57 µM (inactive),2.48 µM (inactive),6.43 µM (inactive),1.32 µM (inactive),4.94 µM (inactive),2.43 µM (inactive),2.81 µM (inactive),2.96 µM (inactive),1.73 µM (inactive),0.571 µM (active)
O=C1Nc2cc([N+](=O)[O-])ccc2C(=O)N2CCC[C@@H]12,> 100 µM (inactive),> 100 µM (inactive),> 100 µM (inactive),> 100 µM (inactive),> 100 µM (inactive),> 100 µM (inactive),> 100 µM (inactive),> 100 µM (inactive),> 100 µM (inactive),> 100 µM (inactive),> 100 µM (inactive),> 100 µM (inactive),> 100 µM (inactive),> 100 µM (inactive),> 100 µM (inactive),> 100 µM (inactive),> 100 µM (inactive),> 100 µM (inactive),> 100 µM (inactive),> 100 µM (inactive)
N=c1c2c(=S)n(-c3ccccc3)c(=S)n(-c3ccccc3)c2nc(SCCN2CCOCC2)n1-c1ccccc1,2.67 µM (inactive),1.98 µM (inactive),18.4 µM (inactive),1.99 µM (inactive),3.67 µM (inactive),1.87 µM (inactive),1.76 µM (inactive),1.94 µM (inactive),7.13 µM (inactive),1.81 µM (inactive),2.1 µM (inactive),1.71 µM (inactive),1.82 µM (inactive),2.73 µM (inactive),1.76 µM (inactive),2.69 µM (inactive),2.06 µM (inactive),2.67 µM (inactive),3.16 µM (inactive),3.83 µM (inactive)
COc1ccc(C2c3cc4c(cc3OC3(OC)COC(=O)C23)OCO4)c(OC)c1 (stereo not given),29.3 µM (inactive),6.56 µM (inactive),54.7 µM (inactive),5.62 µM (inactive),3.23 µM (inactive),34.8 µM (inactive),11.3 µM (inactive),7.43 µM (inactive),25.1 µM (inactive),5.73 µM (inactive),18.4 µM (inactive),32.6 µM (inactive),26.5 µM (inactive),4.84 µM (inactive),19.1 µM (inactive),29.4 µM (inactive),9.84 µM (inactive),3.78 µM (inactive),16.2 µM (inactive),4.62 µM (inactive)
COc1ccc(C(C)NNC(=O)c2cc[n+]([BH2-]C#N)cc2)cc1F (stereo not given),96.2 µM (inactive),> 100 µM (inactive),> 100 µM (inactive),> 100 µM (inactive),> 100 µM (inactive),> 100 µM (inactive),> 100 µM (inactive),> 100 µM (inactive),> 100 µM (inactive),> 100 µM (inactive),> 100 µM (inactive),> 100 µM (inactive),> 100 µM (inactive),> 100 µM (inactive),> 100 µM (inactive),> 100 µM (inactive),> 100 µM (inactive),> 100 µM (inactive),> 100 µM (inactive),> 100 µM (inactive)
